Data taken from US11364260B2, “Methods and compositions for administration of iron” (American Regent, Inc., priority 2006, dated 2022).
Read-outs that look alike come from different tables or passages of the source.

Columns and labels:
subjects with anemia [1] = conditions: human, in vivo
Excerpt: (§2) Study A was a single-center, single-dose escalation, randomized, double-blind, placebo-controlled pharmacokinetic study. Subjects were male and female, between 18 and 45 years of age, inclusive, with mild iron-deficiency anemia. […] Examined pharmacokinetic parameters included total serum iron and pharmacodynamic (serum ferritin and transferrin, iron binding capacity, % TSATpost, hemoglobin, reticulocyte, and serum transferrin receptor concentrations) endpoints. Examined safety parameters included adverse events, clinical laboratory evaluations, vital signs, ECG, and physical examinations.
(§3) Study B was a single-center, single-dose, open label, uncontrolled pharmacokinetic study. Subjects were between 18 and 75 years of age with iron-deficiency or renal anemia with no other cause of anemia. Inclusion criteria included hemoglobin concentration between 9 and 13 g/dL, no blood transfusions in the previous 3 months, and no history of treatment with intravenous iron in the last 2 weeks. […] Examined primary pharmacokinetic parameters included the distribution of ^52Fe and incorporation of ^59Fe into red blood cells. Examined safety parameters included adverse events, clinical laboratory evaluations, vital signs, and physical examinations.
(§4) Study C was an open-label, multicenter, randomized, multiple-dose, active-controlled postpartum anemia study. […] Where screening serum transferrin saturation (TSAT) was 20% or screening ferritin was 50 ng/mL, dosage=pre-pregnancy weight (kg)×(15−baseline hemoglobin [g/dL])×2.4+500 mg. Where screening TSAT was >20% and screening ferritin was >50 ng/mL, dosage=pre-pregnancy weight (kg)×(15−baseline hemoglobin [g/dL])×2.4. […] For primary efficacy, “success” was defined as an increase in hemoglobin of ≥2 g/dL anytime between baseline and end of study or time of intervention, while “failure” was defined as <2 g/dL increase in hemoglobin at all times between baseline and end of study or time of intervention. Examined safety parameters included adverse events, clinical laboratory evaluations, vital signs, and physical examinations.
(§5) Study D was a multicenter, open-label, randomized, active-controlled, multiple-dose postpartum anemia study. Subjects were adult women ≥18 years old with postpartum anemia within 6 days after delivery. Treatment was administered once-weekly for a maximum of 3 infusions. […] Patients ≤66 kg received a minimum dose of 200 mg and a maximum dose of 15 mg iron/kg during each infusion. Patients >66 kg received a dose of 1000 mg on the first dosing occasion, and a minimum dose of 200 mg and a maximum dose of 1000 mg at each subsequent dosing. Doses of 200-400 mg were diluted in 100 cc NSS and 500-1000 mg were diluted in 250 cc NSS. Primary efficacy was examined as change from baseline levels of hemoglobin to Week 12. Examined safety parameters included adverse events in the mother and breast-fed infant, adverse events leading to discontinuation of treatment, vital signs, 12-lead electrocardiogram (ECG), physical examinations, and clinical laboratory panels.
(§6) Study E was a multicenter, open-label, randomized, active-controlled, multiple-dose hemodialysis-associated anemia study.

subjects with anemia [2] = assay: Integrated safety studies (10 clinical studies A-J)
Excerpt: as §2, §3, §4, §5, §6

[3] = isotonic; cited from earlier work
[4] = light scattering; cited from earlier work
[5] = in vivo; cited from earlier work
[6] = Iron (III) Control Release Test; format: physicochemical
[7] = Core and particle size of iron carbohydrate complexes (electron micrographs); format: physicochemical
Excerpt: FIG. 1A-FIG. 1C are a series of electron micrographs that depict the particle size of three iron carbohydrate complexes. […] FIG. 1B is an electron micrograph depicting the particle size of Venofer® (an iron sucrose).
It is within the skill of the art to test various characteristics of iron carbohydrate complexes as so determine amenability to use in the methods described herein. For example, pH and osmolarity are straightforward determinations performed on a sample formulation. Likewise, techniques such as electron micrograph imaging, transmission electron microscopy, and atomic force microscopy provide direct methods to analyze both iron core and particle size. See e.g., FIG. 1; Table 1. The stability of the carbohydrate complex can be assessed through physicochemical properties such as kinetic characteristics, thermodynamic characteristics, and degradation kinetics. See, Geisser et al. (1992) Arzneimittelforschung 42(12):1439-1452. […] Pharmacokinetics can be assessed, for example, by iron tracer experiments. Hypersensitivity reactions can be monitored and assessed as described in, for example, Bailie et al. (2005) Nephrol. […] Safety, efficacy, and toxicity in human subjects can be assessed, for example, as described in Spinowitz et al. (2005) Kidney Intl. […]

[8] = pH and osmolarity of the iron carbohydrate complex; format: physicochemical
Excerpt: It is within the skill of the art to test various characteristics of iron carbohydrate complexes as so determine amenability to use in the methods described herein. For example, pH and osmolarity are straightforward determinations performed on a sample formulation. Likewise, techniques such as electron micrograph imaging, transmission electron microscopy, and atomic force microscopy provide direct methods to analyze both iron core and particle size. See e.g., FIG. 1; Table 1. The stability of the carbohydrate complex can be assessed through physicochemical properties such as kinetic characteristics, thermodynamic characteristics, and degradation kinetics. See, Geisser et al. (1992) Arzneimittelforschung 42(12):1439-1452. Useful techniques to assess physical and electronic properties include absorption spectroscopy, X-ray diffraction analysis, transmission electron microscopy, atomic force microscopy, and elemental analysis. See, Kudasheva et al. (2004) J. Inorg. Biochem. 98:1757-1769. Pharmacokinetics can be assessed, for example, by iron tracer experiments. Hypersensitivity reactions can be monitored and assessed as described in, for example, Bailie et al. (2005) Nephrol. Dial. Transplant 20(7):1443-1449. Safety, efficacy, and toxicity in human subjects can be assessed, for example, as described in Spinowitz et al. (2005) Kidney Intl. 68:1801-1807.

dextran antibodies = assay: Reaction with dextran antibodies / dextran antigenicity test
[9] = PET pharmacokinetic study of 52Fe/59Fe labelled VIT-45 after i.v. administration; format: in vivo, human
Excerpt: See e.g., Beshara et al. (2003) Br. J. Haematol. 120(5): 853-859.
(§1) There was negligible renal elimination.

[10] = Pharmacokinetic studies (total serum iron) in patients with iron deficiency anemia; format: in vivo, human
Excerpt: as §1

rats [11] = assay: Single dose toxicity in rats; format: in vivo
rodents = assay: Single-dose toxicity studies, intravenous, rodents; format: in vivo
dogs [12] = assay: Single-dose toxicity studies, intravenous, dogs; format: in vivo
dogs [13] = assay: Pre-clinical 13-week cumulative dose study in dogs; format: in vivo; conditions: over 13 weeks
rats [14] = assay: Pre-clinical 13-week cumulative dose study in rats; format: in vivo; conditions: over 13 weeks
rabbit = assay: Intra-arterial, perivenous, intravenous tolerance studies; format: in vivo
[15] = In vitro and in vivo mutagenicity tests
patients (Hb levels) = assay: Multiple dose efficacy study, Cohorts 1 and 2 (Hb levels); format: in vivo, human
Excerpt: Efficacy of iron replacement therapy is interpreted mainly in terms of the ability to normalize Hb levels and iron stores. […] In one study, 37% and 48% of patients in Cohorts 1 and 2, respectively, had achieved normal Hb levels at the 4-week follow-up visit, and 75% and 73%, respectively, had achieved a ≥20 g/L increase in Hb on at least 1 occasion.

[16] = test system: patients receiving regular hemodialysis; assay: Multiple dose efficacy study in patients receiving regular hemodialysis; format: in vivo, human
Excerpt: However, elevated levels of ferritin and TfS indicating iron overload were avoided. In both of these studies, there was a gradual decrease in transferrin over time, also indicating successful iron replacement.

patients = assay: Efficacy studies: pharmacodynamic effects (serum iron, TfS, serum ferritin); format: in vivo, human; conditions: single and repeated doses
Excerpt: The increase in serum ferritin levels illustrated the replenishment of the depleted iron stores, which is a well-identified and desired effect of iron therapy.

[17] = test system: patients with iron deficiency anemia or renal anemia; assay: Safety assessments in patients with iron deficiency anemia and renal anemia; format: in vivo, human
mice = assay: Single dose toxicity in mice
[18] = Single dose toxicity (LD50, acute toxicity); conditions: in vivo
[19] = calculated dose/first-dose 1,000 mg studies

**Q.** With “ferrous sulfate [oral iron, reference compound]” as the substance, how does the “incidence of drug-related treatment-emergent adverse events of hypersensitivity” value (subjects with anemia [1]) read?
**A.** Its value is 0.2%.

**Q.** And the “incidence of premature discontinuation due to adverse events” value (subjects with anemia [2])?
**A.** The value was 3.1%.

**Q.** What about the “incidence of adverse events associated with investigations” value (subjects with anemia [2]; [19]) of the same substance?
**A.** The value was 3.9%.

**Q.** What about the “incidence of gastrointestinal disorders” value (subjects with anemia [2]; [19]) of the same substance?
**A.** The value was 31.0%.

**Q.** What about the “incidence of skin and subcutaneous tissue disorders” value (subjects with anemia [2]; [19]) of the same substance?
**A.** The value was 2.4%.

**Q.** What about the “incidence of treatment-emergent adverse events on the first day of dosing” value (subjects with anemia [2]; [19]) of the same substance?
**A.** The value was 2.7%.

**Q.** What about the “overall incidence of treatment-emergent adverse events” value (subjects with anemia [2]; [19]) of the same substance?
**A.** The value was 51.2%.

**Q.** What about the “incidence of adverse events leading to discontinuation” value (subjects with anemia [2]; completed multicenter studies) of the same substance?
**A.** The value was 2.1%.

**Q.** What about the “incidence of gastrointestinal events” value (subjects with anemia [2]; completed multicenter studies) of the same substance?
**A.** The value was 31.0%.

**Q.** What about the “incidence of premature discontinuations” value (subjects with anemia [2]; completed multicenter studies) of the same substance?
**A.** Its value is 9.6%.

**Q.** And the “overall incidence of treatment-emergent adverse events” value (subjects with anemia [2]; completed multicenter studies)?
**A.** Its value is 51.2%.

**Q.** With “polyglucose sorbitol carboxymethyl ether-coated non-stoichiometric magnetite [ferumoxytol]” as the substance, how does the osmolarity [3] read?
**A.** The osmolarity was 297 mOsm/kg.

**Q.** What about the “average colloidal particle size” value [4] of the same substance?
**A.** The value was “about 30 nm”.

**Q.** What about the blood half-life [5] of the same substance?
**A.** The blood half-life was 10 to 14 h.

**Q.** Which results are given for “polynuclear iron (III)-hydroxide 4(R)-(poly-(1→4)-O-α-D-glucopyranosyl)-oxy-2(R),3(R),5(R),6-tetrahydroxy-hexanoate [VIT-45]”?
**A.** Iron (III) Control Release Test T75 [6]: 117.8 min; Size of the Particle +/- SEM, Iron core [7]: 4.4 ± 1.4 nm; Size of the Particle +/- SEM, Total Particle [7]: 6.7 ± 2.5 nm; osmolarity [8]: physiological osmolarity; reaction with dextran antibodies (dextran antibodies): does not react with dextran antibodies; specific responses in dextran antigenicity test (dextran antibodies): no specific responses; calculated terminal half-life (t1/2) ([9]; i.v., patients): approximately 16 hours; distribution after intravenous administration ([9]; in vivo, iv): mainly found in the liver, spleen, and bone marrow; maximal total serum iron concentration (Cmax) ([10]; 500 mg dose): approximately 150 μg/mL; maximal total serum iron concentration (Cmax) ([10]; 1000 mg dose): ~320 µg/mL; renal elimination ([10]; human, in vivo): negligible; highest non-lethal dose level (rats [11]): 1000 mg iron/kg b.w.; safe and tolerated intravenous dose relative to 1,000 mg iron once weekly in humans (rodents): up to 60 times; safe and tolerated intravenous dose relative to 1,000 mg iron once weekly in humans (dogs [12]): up to 60 times; cumulative dose with no observed adverse effect level (clinical signs of iron accumulation in liver, spleen, kidneys) (dogs [13]): up to 117 mg iron/kg body weight; cumulative dose with no observed adverse effect level (clinical signs of iron accumulation in liver, spleen, kidneys) (rats [14]): up to 117 mg iron/kg body weight; treatment-related local tissue irritation (rabbit): No treatment-related local tissue irritation; clastogenic, mutagenic, chromosomal damage or bone marrow cell toxicity [15]: no evidence; patients who achieved a ≥20 g/L increase in Hb on at least 1 occasion (patients (Hb levels); Cohort 1): 75%; patients who achieved normal Hb levels (patients (Hb levels); Cohort 1, 4-week follow-up visit): 37%; patients who achieved a ≥20 g/L increase in Hb on at least 1 occasion (patients (Hb levels); Cohort 2): 73%; patients who achieved normal Hb levels (patients (Hb levels); Cohort 2, 4-week follow-up visit): 48%; patients who achieved an increase of Hb of ≥10 g/L at any point during the study [16]: 61.7%; main pharmacodynamic effects (patients): transient elevations of serum iron levels, TfS and serum ferritin; iron overload ([17]; dosing schedules of the studies): Iron overload was avoided; deaths attributed to treatment ([17]; repeated-dose studies): no deaths; laboratory values reported as treatment-related treatment-emergent adverse events ([17]; repeated-dose studies): 6 patients; patients who experienced serious adverse events (considered not related) ([17]; repeated-dose studies): 10 patients; withdrawals considered possibly related to treatment (allergic skin reactions) ([17]; repeated-dose studies): 2 withdrawals; serious adverse events or withdrawals due to adverse events ([17]; single-dose studies): no serious adverse events or withdrawals; changes in vital signs evaluations (subjects with anemia [1]): no clinically meaningful changes; deaths attributed to treatment (subjects with anemia [1]): no deaths; drug-related mild or moderate hypotension (subjects with anemia [1]): 0.2%; drug-related mild or moderate hypotension, number of subjects (subjects with anemia [1]): 4 subjects; incidence of drug-related treatment-emergent adverse events of hypersensitivity (subjects with anemia [1]): 0.2%; median time to recovery of blood phosphate (subjects with anemia [1]): approximately 2 weeks; overall incidence of treatment-emergent adverse events, 200 mg versus 1000 mg doses (subjects with anemia [1]): similar; treatment-emergent adverse events indicative of potential allergic reactions (rash, pruritus, urticaria) (subjects with anemia [1]): < 2%; highest non-lethal dose level (mice): 1000 mg iron/kg b.w.; signs of illness (mice; single dose 250 mg iron/kg b.w. injected within 2 seconds): no signs of illness; acute toxicity relative to iron sucrose [18]: one-fifth; incidence of premature discontinuation due to adverse events (subjects with anemia [2]): 2.1%; treatment-emergent adverse event: abdominal pain (subjects with anemia [2]; 1095 VIT-45 subjects): 2.5%; treatment-emergent adverse event: blood phosphate decreased (subjects with anemia [2]; 1095 VIT-45 subjects): 2.4%; treatment-emergent adverse event: headache (subjects with anemia [2]; 1095 VIT-45 subjects): 8.6%; treatment-emergent adverse event: hypertension (subjects with anemia [2]; 1095 VIT-45 subjects): 2.2%; treatment-emergent adverse event: hypotension (subjects with anemia [2]; 1095 VIT-45 subjects): 2.0%; treatment-emergent adverse event: nasopharyngitis (subjects with anemia [2]; 1095 VIT-45 subjects): 2.0%; treatment-emergent adverse event: nausea (subjects with anemia [2]; 1095 VIT-45 subjects): 2.4%; incidence of other serious adverse events (subjects with anemia [2]; all completed multicenter studies): 3%; drug-related treatment-emergent adverse event: blood phosphate decreased (subjects with anemia [2]; [19]): 3.3%; drug-related treatment-emergent adverse event: headache (subjects with anemia [2]; [19]): 3.9%; incidence of adverse events associated with investigations (subjects with anemia [2]; [19]): 9.1%; incidence of gastrointestinal disorders (subjects with anemia [2]; [19]): 15.2%; incidence of skin and subcutaneous tissue disorders (subjects with anemia [2]; [19]): 7.3%; incidence of treatment-emergent adverse events on the first day of dosing (subjects with anemia [2]; [19]): 6.8%; overall incidence of treatment-emergent adverse events (subjects with anemia [2]; [19]): 49.5%; incidence of adverse events leading to discontinuation (subjects with anemia [2]; completed multicenter studies): 1.8%; incidence of gastrointestinal events (subjects with anemia [2]; completed multicenter studies): 12.8%; incidence of premature discontinuations (subjects with anemia [2]; completed multicenter studies): 10%; overall incidence of treatment-emergent adverse events (subjects with anemia [2]; completed multicenter studies): 49.5%; serious adverse events or withdrawals due to related adverse events (subjects with anemia [2]; open label clinical trials, about 1700 subjects, up to 1,000 mg over 15 minutes i.v.): no serious adverse events or withdrawals; incidence of other serious adverse events (subjects with anemia [2]; placebo-controlled, single-dose crossover study): 0.3%; time after initial dose at which decreases in blood phosphate were apparent (subjects with anemia [2]; transient, asymptomatic): approximately 7 days
